# Measured values taken from patent US6452001B2, “Diazapane derivatives useful as antagonists of neurokinin 1 receptor and methods for their formation” (Hoffmann-La Roche Inc., priority 2000, dated 2002).
# pKi: −log10 of the molar value. Structures can show the parent of a compound that is named as a salt.
# Target: T1, human NK1 receptor (Homo sapiens, UniProt P25103)
# T1 construct: expressed in transfected cells; host or cells: CHO cells infected using the Semliki virus expression system; membrane suspension
# Assay: NK1 receptor binding assay, [3H]substance P displacement
# Conditions: affinity to the NK-1 receptor; human NK1 receptors in CHO cells, [3H]substance P 0.6 nM
# Experimental: The affinity of test compounds for the NK1 receptor was evaluated at human NK1 receptors in CHO cells infected with the human NK1 receptor (using the Semliki virus expression system) and radiolabelled with [^3H]substance P (final concentration 0.6 nM). Binding assays were performed in HEPES buffer (50 mM, pH 7.4) containing BSA (0.04 %) leupeptin (8 μg/ml), MnCl2 (3 mM) and phosphoramidon (2 μM). Binding assays consisted of 250 μl of membrane suspension (1.25×10^5 cells/assay tube), […] of buffer of displacing agent and 125 μl of [^3H]substance P. Displacement curves were determined with at least seven concentrations of the compound. The assay tubes were incubated for 60 min at room temperature after which time the tube contents were rapidly filtered under vacuum through GF/C filters presoaked for 60 min with PEI (0.3 %) with 2×2 ml washed of HEPES buffer (50 mM, pH 7.4). The radioactivity retained on the filters was measured by scintillation counting. All assays were performed in triplicate in at least 2 separate experiments.
# T1 sequence (P25103 whole entry): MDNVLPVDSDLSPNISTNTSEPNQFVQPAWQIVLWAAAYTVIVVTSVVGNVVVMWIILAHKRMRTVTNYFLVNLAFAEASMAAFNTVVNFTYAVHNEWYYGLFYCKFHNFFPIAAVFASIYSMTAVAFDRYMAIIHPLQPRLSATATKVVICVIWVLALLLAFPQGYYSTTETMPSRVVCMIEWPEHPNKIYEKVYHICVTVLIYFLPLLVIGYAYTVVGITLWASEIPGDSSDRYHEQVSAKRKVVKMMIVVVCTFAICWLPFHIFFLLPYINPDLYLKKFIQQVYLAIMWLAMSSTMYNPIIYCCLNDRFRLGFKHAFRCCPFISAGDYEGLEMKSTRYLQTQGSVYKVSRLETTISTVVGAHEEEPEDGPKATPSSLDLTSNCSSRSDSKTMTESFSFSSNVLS
row,Compound,pKi
1,"CCOc1ccc2ccccc2c1CN1CCC(=O)NC(Cc2ccc(Cl)c(Cl)c2)C1=O (racemic) [Example 17, (RS)-3-(3,4-Dichloro-benzyl)-1-(2-ethoxy-naphthalen-1-yl-methyl)-[1,4]diazepane-2,5-dione]",8.27
2,"O=C1C(Cc2ccc(Cl)c(Cl)c2)n2cnnc2CCN1Cc1cc(C(F)(F)F)cc(C(F)(F)F)c1 (racemic) [Example 20, (RS)-6-(3,5-Bis-trifluoromethyl-benzyl)-4-(3,4-dichloro-benzyl)-7,8-dihydro-6H-1,2,3a,6-tetraaza-azulen-5-one]",8.61
3,"CN(C)Cc1nnc2n1C(Cc1ccc(Cl)c(Cl)c1)C(=O)N(Cc1cc(C(F)(F)F)cc(C(F)(F)F)c1)CC2 (racemic) [Example 23, (RS)-6-(3,5-Bis-trifluoromethyl-benzyl)-4-(3,4-dichloro-benzyl)-3-dimethylaminomethyl-7,8-dihydro-6H-1,2,3a,6-tetraaza-azulen-5-one]",8.36
4,"CN1CCCCC1c1nnc2n1C(Cc1ccc(Cl)c(Cl)c1)C(=O)N(Cc1cc(C(F)(F)F)cc(C(F)(F)F)c1)CC2 (racemic) [Example 24, (RS)-6-(3,5-Bis-trifluoromethyl-benzyl)-4-(3,4-dichloro-benzyl)-3-(1-methyl-piperidin-2-yl)-7,8-dihydro-6H-1,2,3a,6-tetraaza-azulen-5-one]",8.25
5,"COc1ccc2ccccc2c1CN1CCC(=O)N[C@@H](Cc2ccc(Cl)c(Cl)c2)C1=O [Example 15, (3S)-3-(3,4-Dichloro-benzyl)-1-(2-methoxy-naphthalen-1-yl-methyl)-[1,4]diazepane-2,5-dione]",8.49
6,"Cc1ccc2ccccc2c1CN1CCC(=O)N[C@@H](Cc2ccc(Cl)c(Cl)c2)C1=O [Example 16, (3S)-3-(3,4-Dichloro-benzyl)-1-(2-methyl-naphthalen-1-yl-methyl)-[1,4]diazepane-2,5-dione]",8.42

# Continued, values first:
row,pKi,Compound
1,8.41,"O=C1C(Cc2ccc(Cl)c(Cl)c2)n2c(CCN3CCOCC3)nnc2CCN1Cc1cc(C(F)(F)F)cc(C(F)(F)F)c1 (racemic) [Example 21, (RS)-6-(3,5-Bis-trifluoromethyl-benzyl)-4-(3,4-dichloro-benzyl)-3-(2-morpholin-4-yl-ethyl)-7,8-dihydro-6H-1,2,3a,6-tetraaza-azulen-5-one]"
2,8.15,"CCCN=C1CCN(Cc2cc(C(F)(F)F)cc(C(F)(F)F)c2)C(=O)C(Cc2ccc(Cl)c(Cl)c2)N1 (racemic) [Example 26, (RS)-1-(3,5-Bis-trifluoromethyl-benzyl)-3-(3,4-dichloro-benzyl)-5-propylimino-[1,4]diazepan-2-one hydrochloride]"
3,8.76,"COc1ccc2ccccc2c1CN1CCc2nncn2[C@@H](Cc2ccc(Cl)c(Cl)c2)C1=O [Example 19, (4S)-4-(3,4-Dichloro-benzyl)-6-(2-methoxy-naphthalen-1-yl-methyl)-7,8-dihydro-6H-1,2,3a,6-tetraaza-azulen-5-one]"
